Laboratory results published in patent publication US20230146395A1, “Substituted Pyrimidines and Uses Thereof” (Verge Analytics, Inc., priority 2020, published 2023).
Counter-ions that a name gives are not always drawn.

How the values were obtained:
[1] = system: ALS patient (SOD1 A4V) iPSC derived motor neurons; assay: iPSC MN Survival assay (GFP imaging, six days, hazard ratio from Cox regression); type: cell-based; settings: Homo sapiens, survival rescue, read-out: C9 iPSC MN Significant survival rescue EC50
[2] = molecular target: T1, Full length human recombinant PIKFYVE (Homo sapiens, UniProt Q9Y2I7); assay: Inhibition of PIKfyve (microfluidic electrophoresis kinase assay, PI3P/PS substrate); type: biochemical; settings: 12 concentrations
T1 construct: Full length human recombinant PIKFYVE; purchased Carna Biosciences (Kobe, Japan); host or cells: baculovirus expression system
Summary of the method: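 Percent inhibition, from 12 concentrations, was derived from the product/(substrate+product) peak ratio separated by microfluidic electrophoresis, normalized to DMSO-only and enzyme-free controls. Reactions ran 3 h at room temperature: 2 nM N-terminal GST-PIKFYVE, 1 μM fluorescent PI3P in PS vesicles, […], HEPES pH 7.5, MgCl2/MnCl2.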

T1 sequence (Q9Y2I7 whole entry): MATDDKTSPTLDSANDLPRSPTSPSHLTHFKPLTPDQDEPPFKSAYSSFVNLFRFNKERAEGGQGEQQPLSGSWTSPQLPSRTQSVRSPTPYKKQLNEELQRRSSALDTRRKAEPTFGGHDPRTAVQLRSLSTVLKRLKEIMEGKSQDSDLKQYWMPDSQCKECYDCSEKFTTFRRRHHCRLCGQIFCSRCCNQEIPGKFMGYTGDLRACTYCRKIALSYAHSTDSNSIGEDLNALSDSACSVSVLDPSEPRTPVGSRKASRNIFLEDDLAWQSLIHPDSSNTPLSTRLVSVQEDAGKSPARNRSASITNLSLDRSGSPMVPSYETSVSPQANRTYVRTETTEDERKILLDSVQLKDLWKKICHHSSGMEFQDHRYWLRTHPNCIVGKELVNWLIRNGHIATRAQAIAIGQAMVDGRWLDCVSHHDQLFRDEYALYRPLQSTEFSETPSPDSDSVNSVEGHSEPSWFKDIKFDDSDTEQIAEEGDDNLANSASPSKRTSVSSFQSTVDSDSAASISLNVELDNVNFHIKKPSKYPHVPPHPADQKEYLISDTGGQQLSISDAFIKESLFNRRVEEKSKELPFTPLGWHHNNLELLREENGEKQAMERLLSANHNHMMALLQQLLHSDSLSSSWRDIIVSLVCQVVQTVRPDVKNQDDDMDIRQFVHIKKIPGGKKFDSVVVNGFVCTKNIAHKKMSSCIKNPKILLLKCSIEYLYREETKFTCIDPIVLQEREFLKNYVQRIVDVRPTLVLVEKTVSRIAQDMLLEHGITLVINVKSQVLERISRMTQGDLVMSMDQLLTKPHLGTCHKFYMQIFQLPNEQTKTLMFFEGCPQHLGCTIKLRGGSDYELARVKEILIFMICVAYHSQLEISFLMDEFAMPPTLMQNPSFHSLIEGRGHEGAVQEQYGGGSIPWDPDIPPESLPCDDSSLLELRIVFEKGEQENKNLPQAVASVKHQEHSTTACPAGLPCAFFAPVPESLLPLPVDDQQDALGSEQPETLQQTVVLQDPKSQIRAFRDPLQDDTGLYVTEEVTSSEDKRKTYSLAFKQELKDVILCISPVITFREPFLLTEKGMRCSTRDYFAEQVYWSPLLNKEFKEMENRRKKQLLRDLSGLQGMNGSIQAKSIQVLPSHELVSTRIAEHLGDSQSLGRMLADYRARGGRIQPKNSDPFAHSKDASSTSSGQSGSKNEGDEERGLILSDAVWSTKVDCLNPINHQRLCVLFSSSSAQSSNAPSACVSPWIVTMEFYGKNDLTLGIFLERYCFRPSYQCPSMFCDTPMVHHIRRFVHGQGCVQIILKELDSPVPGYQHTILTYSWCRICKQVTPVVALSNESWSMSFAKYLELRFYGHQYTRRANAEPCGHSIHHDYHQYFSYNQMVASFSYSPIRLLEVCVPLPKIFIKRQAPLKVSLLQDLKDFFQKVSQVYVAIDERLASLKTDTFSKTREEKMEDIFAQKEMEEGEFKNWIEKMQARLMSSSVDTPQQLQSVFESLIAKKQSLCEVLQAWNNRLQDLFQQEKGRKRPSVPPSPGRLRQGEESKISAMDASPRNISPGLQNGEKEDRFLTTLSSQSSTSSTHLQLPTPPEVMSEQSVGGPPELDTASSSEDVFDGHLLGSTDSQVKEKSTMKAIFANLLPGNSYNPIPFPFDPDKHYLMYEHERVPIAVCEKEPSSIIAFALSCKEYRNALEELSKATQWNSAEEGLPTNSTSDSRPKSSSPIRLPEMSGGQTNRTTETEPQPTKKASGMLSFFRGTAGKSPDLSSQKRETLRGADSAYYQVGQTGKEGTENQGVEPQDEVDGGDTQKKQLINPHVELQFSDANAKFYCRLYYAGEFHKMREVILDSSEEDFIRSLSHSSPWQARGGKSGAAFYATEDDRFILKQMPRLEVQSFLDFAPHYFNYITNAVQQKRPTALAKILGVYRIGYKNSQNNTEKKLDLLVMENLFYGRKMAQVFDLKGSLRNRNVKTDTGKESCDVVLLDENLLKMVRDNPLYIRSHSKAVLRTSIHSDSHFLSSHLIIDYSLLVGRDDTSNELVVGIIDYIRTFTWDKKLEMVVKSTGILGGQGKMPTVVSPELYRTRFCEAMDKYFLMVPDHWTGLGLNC

Structure (SMILES): c1ccc(-c2cc(Nc3nc(N4CCOCC4)c4oc(-c5ccncc5)cc4n3)[nH]n2)cc1 [Compound 1, 4-morpholino-N-(3-phenyl-1H-pyrazol-5-yl)-6-(pyridin-4-yl)furo[3,2-d]pyrimidin-2-amine hydrochloride]
- EC50 [1]: 1000 nM
- IC50 [2]: 1.4 nM
